Source: PubChem BioAssay AID179 (DTP/NCI, 2004)
Activity calls are given as the source filed them.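 The calls were made as follows: active = compounds giving half or more protection of infected cells from virus-caused growth loss, again on retest; inactive = the rest.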

Test system: CEM cells HIV-1 protection, formazan growth assay
Test: NCI AIDS Antiviral Assay
Settings: for IC50: measured here: growth of uninfected CEM cells
In short: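 Category rules: moderately active means at least 50% protection on retest, and confirmed active means 100% protection reproducibly. The underlying data came from a formazan growth assay in HIV-1-infected CEM cells.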

Row | Structure (SMILES) | EC50 | IC50 | outcome
1 | Cc1cc(Cc2cc(C)c(NC(=O)C(=O)C3CCC4=C(SC5C=CC=CC5N4)C3=O)c(C(C)C)c2)cc(C(C)C)c1NC(=O)C(=O)C1CCC2=C(SC3C=CC=CC3N2)C1=O (centres undefined) | > 41.7 µM | 12 µM | –
2 | Cc1ccc2c(c1)Nc1ccccc1P2(=O)O | > 200 µM | > 200 µM | –
3 | O=C1c2ccccc2C(=O)c2sc(Nc3ccc(Cl)cc3)nc21 | > 11 µM | 4.68 µM | –
4 | C/C(=N/NC(=S)Nc1ccc([N+](=O)[O-])cc1)c1cccc(/C(C)=N\NC(=S)Nc2ccc([N+](=O)[O-])cc2)n1 | > 200 µM | 0.479 µM | –
5 | CC(=O)O[C@]12CCCCC1C1(O)C(O)CCCC[C@H]12 (some centres undefined) | > 200 µM | > 200 µM | –
6 | CC(C(=O)O)c1ccc(C(=O)c2cccs2)cc1 (centres undefined) | > 200 µM | > 200 µM | –
7 | C1CC[N+]2(C1)CC[N+]1(CCCC1)CC2 | > 200 µM | > 200 µM | –
8 | COc1cc2c(cc1OC)C(C1c3cc(OC)c(OC)cc3-c3c(OC)c(OC)cc4c3C1N(C)CC4)C1c3c(cc(OC)c(OC)c3-2)CCN1C (centres undefined) | – | – | inactive
9 | N#Cc1c(N)nc2c3c1NC(=O)C(C(N)=O)C3c1ccccc1O2 (centres undefined) | > 200 µM | > 200 µM | –
10 | O=c1c(O)c(-c2ccccc2)oc2ccccc12.[Zn+2] | > 200 µM | 13.2 µM | –
11 | CC1CCCC(C(=O)CC2CC(=O)NC(=O)C2)C1=O (centres undefined) | > 200 µM | > 200 µM | –
12 | C1=C(c2ccccc2)O[C@H](COCc2ccccc2)C(OCc2ccccc2)[C@@H]1OCc1ccccc1 (some centres undefined) | – | – | inactive
13 | O=C1OC(c2ccccc2)=N/C1=C\c1ccccc1Cl | > 35.5 µM | > 35.5 µM | –
14 | O=C(CC(=O)CC(O)(C(F)(F)F)C(F)(F)F)CC(O)(C(F)(F)F)C(F)(F)F | > 200 µM | 10.5 µM | –
15 | O=C1[C@H]2ON(c3ccccc3)C(c3cccc([N+](=O)[O-])c3)[C@H]2C(=O)N1c1ccc(Cc2ccc(N3C(=O)[C@@H]4ON(c5ccccc5)C(c5cccc([N+](=O)[O-])c5)[C@@H]4C3=O)cc2)cc1 (some centres undefined) | > 6.17 µM | > 6.17 µM | –
16 | C[N+]1(CCCCN2c3ccccc3Sc3cc(N=[N+]=[N-])ccc32)CCN(C(=O)CCNC(=O)Cc2ccc(C(=O)c3ccccc3)cc2)CC1 | > 100 µM | 15.5 µM | –
17 | Cc1ccc(N=C2SC(=NN(C)C)SC2=Nc2ccc(C)cc2)cc1 | > 200 µM | > 200 µM | –
18 | Cc1c(N=Nc2ccc(Cl)cc2)c(-c2ccccc2)n(C2OC(CO)C(O)C(O)C2O)c(=S)c1C#N (centres undefined) | > 200 µM | 37.2 µM | –
19 | O=c1c(-c2ccccc2)nnc2n(Cc3ccccc3)c3ccccc3n12 | > 200 µM | 112 µM | –
20 | Cn1nnnc1SCC1=C(C(=O)O)N2C(=O)C(NC(=O)C(OC=O)c3ccccc3)C2SC1 (centres undefined) | > 200 µM | > 200 µM | –
21 | O=C1C(Cl)N(c2ccc(Cl)cc2)C1c1c[nH]c2ccccc12 (centres undefined) | > 204 µM | 5.13 µM | –

Row | Structure (SMILES) | EC50 | IC50 | outcome
22 | Cc1csc2nc(-c3cccs3)nn12 | > 200 µM | > 200 µM | –
23 | CCCCCCCCCCCCCCCC[N+](C)(C)CCN(Cc1ccc(OC)cc1)c1ncccn1 | > 200 µM | 0.977 µM | –
24 | O=C(O)C(SC1=NNC2(C(=O)N1)c1ccccc1-c1ccccc12)SC1=NNC2(C(=O)N1)c1ccccc1-c1ccccc12 | – | – | inactive
25 | CCCCN(CCCC)P(=S)(OCC)OCC | > 200 µM | > 200 µM | –
26 | COC(=O)C(c1[nH]nc2ccccc12)C(C(=O)OC)c1[nH]nc2ccccc12 (centres undefined) | – | – | inactive
27 | C/C(O)=C(\C=N\C(N)=S)C(=O)Nc1ccccc1C | > 200 µM | > 200 µM | –
28 | CC12CCC(C(=Nc3cc(C(F)(F)F)cc(C(F)(F)F)c3)C1=O)C2(C)C (centres undefined) | > 200 µM | 37.2 µM | –
29 | CC(C)CNC(=O)Cn1c(-c2ccccc2)cc2ccccc21 | > 200 µM | 195 µM | –
30 | O=S1c2ccc(Cl)cc2CC(SSC2Cc3cc(Cl)ccc3S(=O)c3ccccc32)c2ccccc21 (centres undefined) | > 4.68 µM | > 4.68 µM | –
31 | Cn1c(=O)nc2n(-c3ccc(Cl)cc3)c(-c3ccccc3)c(-c3ccccc3)nc-2c1=O | – | – | inactive
32 | O=c1[nH]c2ncsc2c(=O)n1OS(=O)(=O)c1ccccc1 | > 200 µM | 12.9 µM | –
33 | Cc1ncc(C(N)=O)c2c1OC(C)(C)OC2 | > 200 µM | > 200 µM | –
34 | COC(=O)c1ccccc1C1CN=NC12Cc1cc3c(cc1C2=O)CCC3 (centres undefined) | – | – | inactive
35 | O=C(CCc1nnc2s/c(=C\c3ccc4c(c3)OCO4)c(=O)n12)Nc1cc(Cl)ccc1Cl | 72.4 µM | 513 µM | –
36 | COc1ccccc1NC(=O)C1=C(C)NC(C)=C(C(=O)Nc2ccccc2OC)C1C1=CC=COC1 | > 14.8 µM | > 14.8 µM | –
37 | COC(=O)c1c(O)c2c(c3c1OC(C)(C)CC3)OC(C)(C)CC2 | > 200 µM | 93.3 µM | –
38 | CCCCCCCCCCCCCCC(F)C(=O)OCC1OC(CO)(OC2OC(CO)C(O)C(O)C2O)C(O)C1O (centres undefined) | > 200 µM | 95.5 µM | –
39 | Clc1ccccc1C(n1ncc2ccccc21)n1ncc2ccccc21 | – | – | inactive
40 | Cc1ccc(N/N=c2\c3nc4ccccc4nc2n(-c2ccccc2C)c(=S)n3-c2ccccn2)cc1 | > 17.8 µM | – | –
41 | Fc1ccc(NC2=NCCN=C(Nc3ccc(F)cc3)SS2)cc1 | > 200 µM | 24.5 µM | –
